# From patent US7384965B2, “Fused heterocyclic derivatives as PPAR modulators” (Eli Lilly and Company, priority 2003, dated 2008)
row,melting point,Structure (SMILES)
1,131 to 133 °C,"Cc1cc(SC(C)(C)c2cccc3nc(-c4ccc(C(F)(F)F)cc4)oc23)ccc1OCC(=O)O [Example 75, 2-Methyl-4-{1-methyl-1-[2-(4-trifluoromethylphenyl)benzooxazol-7-yl]ethylsulfanyl}phenoxyacetic Acid]"
2,238 to 240 °C (dec.),"Cc1cc(SCc2cccc3[nH]c(-c4ccc(C(F)(F)F)cc4)nc23)ccc1OCC(=O)O [Example 85, 2-Methyl-4-[2-(4-trifluoromethylphenyl)-1H-benzoimidazol-4-ylmethylsulfanyl]phenoxyacetic Acid]"
3,155 to 157 °C,"Cc1cc(SCc2cccc3nc(-c4ccc(C(F)(F)F)cc4)oc23)ccc1CCC(=O)O [Example 69, 3-{2-Methyl-4-[2-(4-trifluoromethylphenyl)benzooxazol-7-ylmethylsulfanyl]phenyl}propionic Acid]"

# Continued, compound first:
row,Structure (SMILES),melting point
1,"O=C(O)Cc1cccc(SCc2ccnc3oc(-c4ccc(C(F)(F)F)cc4)nc23)c1 [Example 99, 3-[2-(4-Trifluoromethylphenyl)oxazolo[5,4-b]pyridin-7-ylmethylsulfanyl]phenylacetic Acid]",164 to 166 °C
2,"Cc1cc(SCCc2cccc3sc(-c4ccc(C(F)(F)F)cc4)nc23)ccc1OCC(=O)O [Example 48, 2-Methyl-4-{2-[2-(4-trifluoromethylphenyl)benzothiazol-4-yl]ethylsulfanyl}phenoxyacetic Acid]",97 to 100 °C
3,"Cc1cc(SCc2cccc3[nH]c(-c4ccc(C(F)(F)F)cc4)cc23)ccc1OCC(=O)O [Example 93, 2-Methyl-4-[2-(4-trifluoromethylphenyl)-1H-indol-4-ylmethylsulfanyl]phenoxyacetic Acid]",85 to 88 °C
4,"CCc1cc(SCc2cccc3c2nc(-c2ccc(C(F)(F)F)cc2)n3C)ccc1OCC(=O)O [Example 91, 2-Ethyl-4-[1-methyl-2-(4-trifluoromethylphenyl)-1H-benzoimidazol-4-ylmethylsulfanyl]phenoxyacetic Acid]",178 to 180 °C
